Target: T1, PPARγ-LBD (UniProt ID: P37231-2) (Homo sapiens, UniProt P37231)
T1 construct: PPARγ-LBD (UniProt ID: P37231-2) was expressed and purified in insect system; made in house
T1 sequence (P37231 238-503 limits assumed): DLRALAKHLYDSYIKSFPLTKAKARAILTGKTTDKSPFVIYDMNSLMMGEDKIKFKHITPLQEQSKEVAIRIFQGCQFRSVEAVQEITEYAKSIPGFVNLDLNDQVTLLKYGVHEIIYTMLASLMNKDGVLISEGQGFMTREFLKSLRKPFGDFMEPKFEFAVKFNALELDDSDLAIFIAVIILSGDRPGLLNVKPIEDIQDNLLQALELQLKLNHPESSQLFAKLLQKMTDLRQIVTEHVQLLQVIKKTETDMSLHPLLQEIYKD
Assay: PPARγ-SMRT recruitment assay (TR-FRET)
Type: biochemical
Settings: for Emax: 1 h, max value of % Activation, high control 10 uM control compound, low control 1% DMSO, read-out: Top %; for EC50: TR-FRET, SMRT peptide recruitment to PPARγ-LBD, 120 min pre-incubation
Description: PPARγ TR-FRET assay was initiated to evaluate potential activatory effect of the compounds of the present disclosure for SMRT recruitment to PPARγ protein. PPARγ-LBD (UniProt ID: P37231-2) was expressed and purified in insect system and stored at −80° C. in aliquots. Biotinylated SMRT peptide was synthesized (Biotin-[…]). 5 μL protein solution mixture consisting of 10 nM PPARγ-LBD and 2 nM Anti-His Eu (Cisbio, 61HISKLA) in assay buffer (25 mM HEPES pH7.4, 25 mM KCl, 1 mM EDTA, 0.01% BSA, 0.01% Tween-20, 1 mM TCEP) was added to 384-well plates containing duplicate 10-point dose response titration of compounds in 5 μL assay buffer (1% f.c. DMSO(v/v)). After 120 min pre-incubation at room temperature, 5 μL peptide solution mixture consisting of 50 nM Biotin-SMRT peptide and 25 nM Streptavidin-XL665 (Cisbio, 610SAXLA) added to plates. Plates were incubated for 60 min. and read in CLARIOstar Plus plate reader with Ex/Em 620 nm/[…]. Average TR-FRET ratio of high control (Wells with 10 uM control compound) was calculated as High Control (HC). Average TR-FRET ratio of low control (Wells with 1% DMSO) was calculated as Low control (LC). For one compound, top % is the max value of % Activation.
EC50 values were determined by fitting the data to the standard 4 parameters with Hill Slope using GraphPad Prism software. […] ND: No Determine.

Row | Emax | EC50 | Structure (SMILES)
1 | 495% | < 100 nM | CC(C)(O)C#Cc1c(F)cc2[nH]c(-c3cc(C#N)ccc3S(C)(=O)=O)cc(=O)c2c1F [Example 1, 3-(5,7-Difluoro-6-(3-hydroxy-3-methylbut-1-yn-1-yl)-4-oxo-1,4-dihydroquinolin-2-yl)-4-(methylsulfonyl)benzonitrile]
2 | 311% | < 100 nM | C#Cc1c(F)cc2[nH]c(-c3cc(C#N)ccc3S(C)(=O)=O)cc(=O)c2c1F [Example 2, 3-(6-Ethynyl-5,7-difluoro-4-oxo-1,4-dihydroquinolin-2-yl)-4-(methylsulfonyl)benzonitrile]
3 | 300% | < 100 nM | CS(=O)(=O)c1ccc(C#N)cc1-c1cc(=O)c2c(F)c(C#CCO)c(F)cc2[nH]1 [Example 3, 3-(5,7-Difluoro-6-(3-hydroxyprop-1-yn-1-yl)-4-oxo-1,4-dihydroquinolin-2-yl)-4-(methylsulfonyl)benzonitrile]
4 | 200% | < 100 nM | C[C@@H](O)C#Cc1c(F)cc2[nH]c(-c3cc(C#N)ccc3S(C)(=O)=O)cc(=O)c2c1F [Example 4, (R)-3-(5,7-Difluoro-6-(3-hydroxybut-1-yn-1-yl)-4-oxo-1,4-dihydroquinolin-2-yl)-4-(methylsulfonyl)benzonitrile]
5 | 367% | < 100 nM | C[C@H](O)C#Cc1c(F)cc2[nH]c(-c3cc(C#N)ccc3S(C)(=O)=O)cc(=O)c2c1F [Example 5, (S)-3-(5,7-Difluoro-6-(3-hydroxybut-1-yn-1-yl)-4-oxo-1,4-dihydroquinolin-2-yl)-4-(methylsulfonyl)benzonitrile]
6 | 266% | < 100 nM | CS(=O)(=O)c1ccc(C#N)cc1-c1cc(=O)c2c(F)c(C#CCCO)c(F)cc2[nH]1 [Example 6, 3-(5,7-Difluoro-6-(4-hydroxybut-1-yn-1-yl)-4-oxo-1,4-dihydroquinolin-2-yl)-4-(methylsulfonyl)benzonitrile]
7 | 207% | < 100 nM | CS(=O)(=O)c1ccc(C#N)cc1-c1cc(=O)c2c(F)c(C#CC3(O)COC3)c(F)cc2[nH]1 [Example 7, 3-(5,7-Difluoro-6-((3-hydroxyoxetan-3-yl)ethynyl)-4-oxo-1,4-dihydroquinolin-2-yl)-4-(methylsulfonyl)benzonitrile]
8 | 208% | < 100 nM | CC(C)(N)C#Cc1c(F)cc2[nH]c(-c3cc(C#N)ccc3S(C)(=O)=O)cc(=O)c2c1F [Example 8, 3-(6-(3-Amino-3-methylbut-1-yn-1-yl)-5,7-difluoro-4-oxo-1,4-dihydroquinolin-2-yl)-4-(methylsulfonyl)benzonitrile]
9 | 359% | < 100 nM | CS(=O)(=O)c1ccc(C#N)cc1-c1cc(=O)c2c(F)c(C#CC3CC3)c(F)cc2[nH]1 [Example 9, 3-(6-(Cyclopropylethynyl)-5,7-difluoro-4-oxo-1,4-dihydroquinolin-2-yl)-4-(methylsulfonyl)benzonitrile]
10 |  | < 100 nM | CC(C)(C)C#Cc1c(F)cc2[nH]c(-c3cc(C#N)ccc3S(C)(=O)=O)cc(=O)c2c1F [Example 10, 3-(6-(3,3-Dimethylbut-1-yn-1-yl)-5,7-difluoro-4-oxo-1,4-dihydroquinolin-2-yl)-4-(methylsulfonyl)benzonitrile]
11 | 435% | < 100 nM | CS(=O)(=O)c1ccc(C#N)cc1-c1cc(=O)c2c(F)c(C#Cc3ccccc3)c(F)cc2[nH]1 [Example 11, 3-(5,7-Difluoro-4-oxo-6-(phenylethynyl)-1,4-dihydroquinolin-2-yl)-4-(methylsulfonyl)benzonitrile]
12 | 181% | < 100 nM | Cn1cc(C#Cc2c(F)cc3[nH]c(-c4cc(C#N)ccc4S(C)(=O)=O)cc(=O)c3c2F)cn1 [Example 12, 3-(5,7-Difluoro-6-((1-methyl-1H-pyrazol-4-yl)ethynyl)-4-oxo-1,4-dihydroquinolin-2-yl)-4-(methylsulfonyl)benzonitrile]
13 | 187% | < 100 nM | CS(=O)(=O)c1ccc(C#N)cc1-c1cc(=O)c2c(F)c(C3CC3)c(F)cc2[nH]1 [Example 13, 3-(6-Cyclopropyl-5,7-difluoro-4-oxo-1,4-dihydroquinolin-2-yl)-4-(methylsulfonyl)benzonitrile]
14 | 613% | < 100 nM | Cc1ccccc1C#Cc1c(F)cc2[nH]c(-c3cc(C#N)ccc3S(C)(=O)=O)cc(=O)c2c1F [Example 17, 3-(5,7-Difluoro-4-oxo-6-(o-tolylethynyl)-1,4-dihydroquinolin-2-yl)-4-(methylsulfonyl)benzonitrile]
15 |  | < 100 nM | CS(=O)(=O)c1ccc(C#N)cc1-c1cc(=O)c2c(F)c(OCc3ccccc3)c(F)cc2[nH]1 [Example 18, 3-(6-(Benzyloxy)-5,7-difluoro-4-oxo-1,4-dihydroquinolin-2-yl)-4-(methylsulfonyl)benzonitrile]
16 | 208% | < 100 nM | CC#Cc1c(F)cc2[nH]c(-c3cc(C#N)ccc3S(C)(=O)=O)cc(=O)c2c1F [Example 19, 3-(5,7-Difluoro-4-oxo-6-(prop-1-yn-1-yl)-1,4-dihydroquinolin-2-yl)-4-(methylsulfonyl)benzonitrile]
17 | 210% | < 100 nM | CCC#Cc1c(F)cc2[nH]c(-c3cc(C#N)ccc3S(C)(=O)=O)cc(=O)c2c1F [Example 20, 3-(6-(But-1-yn-1-yl)-5,7-difluoro-4-oxo-1,4-dihydroquinolin-2-yl)-4-(methylsulfonyl)benzonitrile]
18 |  | < 100 nM | CC(C)C#Cc1c(F)cc2[nH]c(-c3cc(C#N)ccc3S(C)(=O)=O)cc(=O)c2c1F [Example 21, 3-(5,7-Difluoro-6-(3-methylbut-1-yn-1-yl)-4-oxo-1,4-dihydroquinolin-2-yl)-4-(methylsulfonyl)benzonitrile]
19 |  | < 100 nM | CS(=O)(=O)c1ccc(C#N)cc1-c1cc(=O)c2c(F)c(C#Cc3ccncc3)c(F)cc2[nH]1 [Example 22, 3-(5,7-Difluoro-4-oxo-6-(pyridin-4-ylethynyl)-1,4-dihydroquinolin-2-yl)-4-(methylsulfonyl)benzonitrile]
20 | 316% | < 100 nM | CC(C)(F)C#Cc1c(F)cc2[nH]c(-c3cc(C#N)ccc3S(C)(=O)=O)cc(=O)c2c1F [Example 23, 3-(5,7-Difluoro-6-(3-fluoro-3-methylbut-1-yn-1-yl)-4-oxo-1,4-dihydroquinolin-2-yl)-4-(methylsulfonyl)benzonitrile]
21 | 197% | < 100 nM | CS(=O)(=O)c1ccc(C#N)cc1-c1cc(=O)c2c(F)c(C#CC3COC3)c(F)cc2[nH]1 [Example 24, 3-(5,7-Difluoro-6-(oxetan-3-ylethynyl)-4-oxo-1,4-dihydroquinolin-2-yl)-4-(methylsulfonyl)benzonitrile]
22 |  | < 100 nM | CS(=O)(=O)c1ccc(C#N)cc1-c1cc(=O)c2c(F)c(CCC3CCOCC3)c(F)cc2[nH]1 [Example 25, 3-(5,7-Difluoro-4-oxo-6-(2-(tetrahydro-2H-pyran-4-yl)ethyl)-1,4-dihydroquinolin-2-yl)-4-(methylsulfonyl)benzonitrile]
23 |  | < 100 nM | CS(=O)(=O)c1ccc(C#N)cc1-c1cc(=O)c2c(F)c(OCC3CCC3)c(F)cc2[nH]1 [Example 26, 3-(6-(Cyclobutylmethoxy)-5,7-difluoro-4-oxo-1,4-dihydroquinolin-2-yl)-4-(methylsulfonyl)benzonitrile]

Source: patent publication US20260274799A1, “HETEROCYCLIC DERIVATIVES, COMPOSITIONS AND USES THEREOF” (DANATLAS PHARMACEUTICALS CO., LTD., priority 2023, published 2026)
